Measurements: patent US20240343762A1, “USE OF PROTON PUMP MODULATOR IN PREPARING REAGENT” (SHANGHAI QUIETD BIOTECHNOLOGY CO. LTD., priority 2021, published 2024)
Ends that are not written are not given here.

Columns and labels:
[1] = tested on: hippocampal CA1 pyramidal neurons; assay: Whole-cell patch-clamp recording of spontaneous excitatory postsynaptic current (sEPSC) in hippocampus brain slice; type: cell-based, mouse; details: sEPSC at -70 mV, perfusion for 5 min; 5 μM in Embodiment 3
Experimental: 0.1-0.15 ml of 20% ethyl carbamate was injected into the abdominal cavity of a C57 mouse of 2 to 3 months old for anesthesia; a head was quickly cut, and brain tissues were stripped and put into artificial cerebrospinal fluid (ACSF) ice-water mixed liquid into which mixed gas (95% O2 and 5% CO2) was introduced in advance, and stood for 2 min; the ACSF included the following components: […] of NaCl, […] of KCl, 0.12 mM of NaH2PO4, 0.25 mM of CaCl2), 0.12 mM of MgCl2, 25 mM of NaHCO3 and 11 mM of glucose. A hippocampus coronal brain slice of 350 μm was cut by a vibration slicer. The hippocampus coronal brain slice was placed into the ACSF at room temperature for more than 30 min for recovery, and then the brain slice was put into a record slot; continuous perfusing was performed at a speed of 2 to 2.5 ml/min by the ACSF into which the mixed gas was introduced; blind-binding sealing was performed on hippocampus CA1 pyramidal neuron under an Olympic BX51 upright microscope; whole-cell patch-clamp was performed by an Axon700B amplifier and a 1550B digital-to-analog converter; spontaneous excitatory postsynaptic current (sEPSC) of the pyramidal neuron was recorded by a voltage clamp under the clamp voltage of −70 mV; after recording for 5 min, synthetic polypeptides such as 5 μM QD202 or QD202 N′-1, C′-1 and C′-2 for 5 min; and then perfusing and flushing were performed for 10 min by the ACSF. The recorded data was analyzed by Minianalysis software. […]

[2] = target: T1, ATP6V1B2 protein of mouse brain hippocampus tissue (endogenous) (mouse, UniProt P62814 1-511); assay: immunoprecipitation with biotin antibody from mouse hippocampus lysate, SDS-PAGE, mass spectrometry
T1 construct: Endogenous protein in tissue lysate; also called band of about 55 kDa
T1 sequence (P62814 whole entry): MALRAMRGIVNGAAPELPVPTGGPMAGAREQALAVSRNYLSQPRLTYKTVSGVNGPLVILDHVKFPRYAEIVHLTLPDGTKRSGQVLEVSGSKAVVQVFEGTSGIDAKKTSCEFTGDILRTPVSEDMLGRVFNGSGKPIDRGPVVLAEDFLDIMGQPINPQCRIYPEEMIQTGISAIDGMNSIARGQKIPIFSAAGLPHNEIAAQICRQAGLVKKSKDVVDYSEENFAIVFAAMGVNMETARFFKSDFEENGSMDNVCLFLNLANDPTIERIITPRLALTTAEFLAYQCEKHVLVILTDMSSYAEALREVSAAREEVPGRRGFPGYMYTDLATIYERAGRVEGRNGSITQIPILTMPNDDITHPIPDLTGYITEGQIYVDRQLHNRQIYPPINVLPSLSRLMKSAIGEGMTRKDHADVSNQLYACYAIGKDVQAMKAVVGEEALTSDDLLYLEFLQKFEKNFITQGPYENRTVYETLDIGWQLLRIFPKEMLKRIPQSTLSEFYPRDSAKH

QD202 C′-1: polypeptide of SEQ ID NO. 3; QD202 with one amino acid removed at the C end (YGRKKRRQRRRSPVDVVC; QD202 C -1)
spontaneous excitatory synaptic transmitter release of hippocampal CA1 neurons [1]: effect similar to that of QD202 can still be observed

QD202 C′-2: polypeptide of SEQ ID NO. 4; QD202 with two amino acids removed at the C end (YGRKKRRQRRRSPVDVV; QD202 C -2)
spontaneous excitatory synaptic transmitter release of hippocampal CA1 neurons [1]: effect similar to that of QD202 cannot be observed

QD202 N′-1: polypeptide of SEQ ID NO. 2; QD202 with one amino acid removed at the N end (YGRKKRRQRRRPVDVVCS; QD202 N -1)
spontaneous excitatory synaptic transmitter release of hippocampal CA1 neurons [1]: effect similar to that of QD202 cannot be observed

YGRKKRRQRRRVCDSSVVP-biotin [Disordered control QD201 with a biotin label at the C' end]
binding result [2]: no binding
